Experimental data from patent US9597393B2, “Synthetic toll-like receptor-4 (TLR-4) agonist peptides” (AV Therapeutics, Inc., priority 2012, dated 2017).
Entries after “also recorded” stand apart in the source; their conditions may differ. Ends that are not written are not given here.

Tests used:
[1] = Immunogenicity of the adjuvant peptide itself in mice; format: in vivo; details: two groups of 3 mice vaccinated with 25 ng of peptide alone; data not shown
Source text: This significant increase in X-15 specific antibody concentration with RS09 was observed on day 28 (white bar) post vaccination as shown in FIG. 6. […] Thus, while RS01 and RS09 were not immunogenic at the concentration used, RS09 was capable of enhancing production of X-15 specific antibodies.

[2] = molecular target: T1, TLR-4 (Homo sapiens, UniProt O00206); assay: NF-κB activation (SEAP reporter) in HEK-BLUE-4 cells; format: cell-based; details: peptide 1, 5 and 10 μg/ml
T1 construct: host or cells: HEK-BLUE-4 (transgenic HEK293)
Method: FIG. 2—LPS peptide mimics activate NF-κB in HEK-BLUE™-4. LPS peptide mimics were dissolved in endotoxin free water and added to 96-well plates at three concentrations; 1 μg/ml (black bar), 5 μg/ml (gray bar), and 10 μg/ml (white bar). HEK-BLUE™4 were then added to each well at a concentration of 5×10^4 cells per well in complete media. The supernatant was then harvested after 24 h and assayed for alkaline phosphatase secretion indicating activation of NF-κB. NF-κB activation is represented in FIG. 2A for peptides RS01-RS07 and in FIG. 2B for peptides RS08-RS12. LPS was used as a positive control in assaying all peptides for NF-κB activation. Absorbance was taken at 630 nm. Each experiment was repeated three times with similar results observed. The standard deviation shown above each sample represents three replicates in one experiment.
The twelve peptides were assayed for their ability to bind to TLR-4 and activate NF-κB using a transgenic HEK293 cell line known as HEK-BLUE™-4. This cell line is stably transfected to only express TLR-4 on its plasma membrane, with no other TLRs present. Detecting activation of NF-κB is made possible by placing secreted alkaline phosphatase (SEAP) under the control of the NF-κB promoter. Therefore, NF-κB activation leads to SEAP secretion, which is detected by an alkaline phosphatase substrate in cell culture media.
The LPS peptide mimics were dissolved in endotoxin free water (HyClone) at a concentration of 1 μg/ml with the exception of peptide 4 which was dissolved in a solution of 1% DMSO made in endotoxin free water at 1 μg/ml concentration. All of the peptide stock solutions and stored at −80° C. Each of the 12 peptides (RS01-RS12) was added to 96-well plates in triplicate in a total volume of 20 μl. The total volume required in each•well was made up with endotoxin free water (HyClone). […] After a noticeable color change, the absorbance was taken at 630 nm using the microplate reader (Bio-Rad). […]

[3] = Water solubility of peptide stock; format: physicochemical; details: endotoxin free water; dissolved in 1% DMSO instead
Method: The LPS peptide mimics were dissolved in endotoxin free water (HyClone) at a concentration of 1 μg/ml with the exception of peptide 4 which was dissolved in a solution of 1% DMSO made in endotoxin free water at 1 μg/ml concentration. All of the peptide stock solutions and stored at −80° C. Each of the 12 peptides (RS01-RS12) was added to 96-well plates in triplicate in a total volume of 20 μl. The total volume required in each•well was made up with endotoxin free water (HyClone). 5×10^4 HEK-BLUE™-4 cells (Invivogen, San Diego, Calif.) were added per well and incubated for approximately 20 h after which the supernatant from each well was collected and placed into a new 96-well plate. 180 μl of HEK-BLUE™ detection media (Invivogen), alkaline phosphatase detection substrate, was added to each well and incubated for 1-3 h at 37° C. After a noticeable color change, the absorbance was taken at 630 nm using the microplate reader (Bio-Rad).
For all peptides, three concentrations, 1 μg/ml (black bars), 5 μg/ml (gray bars), and 10 μg/ml (white bars) were used to activate HEK-BLUE™-4 cells. LPS (0.1 μg/ml) was used as a positive control.

[4] = test system: prostate tumor; details: in vivo, administered with an adjuvant; cited from earlier work
[5] = test system: NF-κB; assay: NF-κB nuclear translocation Western blot in non-TLR-4 expressing HEK293 (negative control cells); format: cell-based; details: HEK293 lacking TLR-4
Method: FIG. 3—LPS peptide mimics lead to NF-κB nuclear translocation. Nuclear translocation studies of NF-κB were performed by Western blot analysis on both RAW264.7 (FIG. 3A), HEK-BLUE™-4 (FIG. 3B), and HEK293 (FIG. 3C) cells. Cells were stimulated with peptide, either RS01 or RS09, at a concentration of 5 μg/ml per 5×10^4 cells at various time points (15, 30, 60, and 120 min) Nuclear protein fractions were assayed for NF-κB while cytoplasmic proteins fractions were assayed for both NF-κB and IκB-α. HDAC was used as a nuclear protein loading control and actin was used as a cytoplasmic protein loading control.
For NF-KB nuclear translocation western blots, cytoplasmic and nuclear protein extracts were prepared from HEK-BLUE™-4, HEK293, and RAW264.7 cells (2×10^6 cells) using NE-PER, nuclear and cytoplasmic extraction reagent kit (PIERCE, Rockford, Ill.). The manufacturer's protocol was followed to separate cytoplasmic and nuclear fractions. Nuclear and cytoplasmic lysates (10 μg protein) were subjected to 12% SDS-PAGE under reducing conditions (presence of β-mercaptoethanol). […] After four washes with TBST and one wash with TBS, membranes were developed by ECL (Pierce) and detected on HyBlot CL™ autoradiography film (Denville Scientific, Inc, Metuchen, N.J.). […]

[6] = test system: RAW264.7 cells; assay: Inflammatory cytokine secretion from RAW264.7 macrophages (antibody array); format: cell-based, mouse; details: 24 h
Method: FIG. 5—RAW264.7 secretes inflammatory cytokines in response to RS01 and RS09. RAW264.7 cells were seeded at a density of 1×10^6 cells per well of a six well plate followed by addition of either […] (FIG. 5A) or RS09 (FIG. 5B) and incubated for 24 h after which the culture media was collected. LPS was used as a positive control for both RS01 and RS09. Culture media was then analyzed for specific cytokines using an antibody array kit. […] Each cytokine is represented as an IDV value which was calculated by comparing the density of each spot with respect to the density of the internal positive controls. The antibody array represents a qualitative comparison of each cytokine and is […]. Each experiment was repeated three times with similar results observed. […]
RAW264. […] The blots were then developed using ECL (Pierce) and detected on HyBlot CL™ autoradiography film (Denville Scientific). […]
Although the values obtained for each cytokine are not quantitative but rather qualitative, they do show an increase in release of inflammatory cytokines. These values were calculated and presented as IDV, which is the density of each spot compared to the density of the internal positive controls present on each membrane. Values for the various cytokines and chemokines detected are presented in FIG. 5A for RS01 and FIG. 5B for RS09. […]

[7] = test system: NF-κB; assay: Fluorescence microscopy of NF-κB nuclear translocation in RAW264.7; format: cell-based; details: 5 μg/ml, 30 min
Method: FIG. 4—Fluorescence microscopy of NF-κB nuclear translocation. RAW264.7 macrophages were seeded in 8 well chamber slides at a density of 2×10^4 cells per well and stimulated with 5 μg/ml of either RS01 or RS09. After 30 min incubation, cells were fixed (4% para-formaldehyde), permeabilized (0.2% TRITON® X-100), blocked (10% goat serum/1% BSA), and incubated with anti-NF-κB followed by DAPI staining of nuclei. The stained cells were visualized using the Axiovert 200 M microscope with a 40× magnification. NF-KB (green) was more diffusely spread throughout the cytoplasm in control cells but appeared more circular in RS01, RS09, and LPS treated cells.
HEK-BLUE™-4 and RAW264.7 cells were seeded in 8-chamber slides (BD Biosciences, Bedford, Mass.) at a density of 2×10^4 cells per well. Cells were allowed to adhere at 37° C. over night after which the cells were stimulated with LPS peptide mimics at various time points and subsequently processed for immunofluorescence. The cells were fixed with a 4% paraformaldehyde/PBS solution, followed by permeabilization with 0.2% TRITON® X-100, and blocked using a solution of 0.1% TRITON® X-100, 1% BSA, and 10% goat serum. […]

T1 sequence (O00206 24-839): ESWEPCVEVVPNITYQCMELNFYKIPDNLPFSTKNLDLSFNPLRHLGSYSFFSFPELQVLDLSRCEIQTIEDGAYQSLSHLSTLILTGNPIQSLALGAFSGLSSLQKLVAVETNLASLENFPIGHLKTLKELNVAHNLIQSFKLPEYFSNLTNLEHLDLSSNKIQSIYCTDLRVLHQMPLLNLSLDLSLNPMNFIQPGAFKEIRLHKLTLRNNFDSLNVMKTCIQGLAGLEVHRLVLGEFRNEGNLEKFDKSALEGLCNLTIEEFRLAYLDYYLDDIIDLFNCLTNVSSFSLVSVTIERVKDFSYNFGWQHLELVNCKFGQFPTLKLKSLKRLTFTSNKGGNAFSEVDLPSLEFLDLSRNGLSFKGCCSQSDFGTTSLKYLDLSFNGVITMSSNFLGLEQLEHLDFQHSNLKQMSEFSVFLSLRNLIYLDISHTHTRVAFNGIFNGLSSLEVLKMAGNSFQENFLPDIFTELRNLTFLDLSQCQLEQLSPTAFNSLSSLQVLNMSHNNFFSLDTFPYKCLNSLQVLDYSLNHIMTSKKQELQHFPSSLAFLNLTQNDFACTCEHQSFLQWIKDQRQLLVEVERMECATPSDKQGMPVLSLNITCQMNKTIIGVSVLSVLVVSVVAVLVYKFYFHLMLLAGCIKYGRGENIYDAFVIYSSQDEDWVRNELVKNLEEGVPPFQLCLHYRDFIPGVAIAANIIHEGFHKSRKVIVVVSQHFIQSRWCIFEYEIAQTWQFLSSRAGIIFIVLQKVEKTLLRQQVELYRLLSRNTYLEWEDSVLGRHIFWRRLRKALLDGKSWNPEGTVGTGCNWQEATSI
T1 sequence (Q9Y6Y9 17-160 partner limits assumed): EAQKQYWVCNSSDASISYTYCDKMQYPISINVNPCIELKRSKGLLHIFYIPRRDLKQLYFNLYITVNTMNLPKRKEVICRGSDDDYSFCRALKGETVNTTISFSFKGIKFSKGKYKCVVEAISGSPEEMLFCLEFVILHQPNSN

Substance: APPHALS [RS09, Ala Pro Pro His Ala Leu Ser]
- antibody response to the adjuvant peptide (immunogenicity) [1]: no antibodies were produced

Substance: ELAPDSP [RS12]
- TLR-4 stimulation and NF-κB activation (alkaline phosphatase secretion, absorbance 630 nm) [2]: considered as positive for TLR-4 stimulation and NF-κB activation

Substance: GLQQVLL [RS04, Gly Leu Gln Gln Val Leu Leu]
- water solubility [3]: not water soluble

Substance: GQWQSGDRYWMETST (also: KLH conjugate) [Peptide X-15]
- prostate tumor protective properties [4]: possess prostate tumor protective properties in vivo

Substance: Lipopolysaccharide [LPS]
- NF-κB nuclear translocation [5]: do not activate the non-TLR-4 expressing HEK293 cells; also recorded: did not result in nuclear translocation
- secretion of inflammatory cytokines and chemokines (IDV, qualitative) [6]: capable of inducing inflammatory cytokines and chemokines
- NF-κB nuclear localization (immunofluorescence, DAPI merge) [7]: nuclear localization of NF-κB was observed

Substance: QEINSSY [RS01, Gln Glu Ile Asn Ser Ser Tyr]
- antibody response to the adjuvant peptide (immunogenicity) [1]: no antibodies were produced

Substance: SMPNPMV [RS03]
- TLR-4 stimulation and NF-κB activation (alkaline phosphatase secretion, absorbance 630 nm) [2]: considered as TLR-4 stimulating and hence activators of NF-κB

Substance: VVPTPPY [RS11]
- TLR-4 stimulation and NF-κB activation (alkaline phosphatase secretion, absorbance 630 nm) [2]: considered as positive for TLR-4 stimulation and NF-κB activation
